Reference: ChEMBL document CHEMBL3407489, “Bis-aryl urea derivatives as potent and selective LIM kinase (Limk) inhibitors” (J Med Chem, 2015)
pIC50: −log10 of the molar value.

Tests used:
[1] = system: Liver microsome; experiment: Half life in human liver microsomes; assay type: ADME
[2] = system: Liver microsome; experiment: Half life in rat liver microsomes; assay type: ADME
[3] = biological target: T1, LIM domain kinase 1 (Homo sapiens, UniProt P53667)
Description: Inhibition of human Limk1 using cofilin substrate, ATP and [gamma33P]ATP

[4] = Oral bioavailability in Sprague-Dawley rat at 2 mg/kg by LC-MS/MS and HPLC method; assay type: ADME, organism-based; details: in vivo
[5] = Volume of distribution in Sprague-Dawley rat at 1 mg/kg, iv by LC-MS/MS and HPLC method; assay type: ADME, organism-based; parameters: dose 1 mg/kg, route intravenous; details: in vivo
[6] = biological target: T2, CYP1A2 (Homo sapiens, UniProt P05177); experiment: Inhibition of CYP1A2 (unknown origin) assessed as reduction in phenaceten demethylation to acetaminophen at 10 uM; assay type: ADME
T2 sequence (P05177 whole entry): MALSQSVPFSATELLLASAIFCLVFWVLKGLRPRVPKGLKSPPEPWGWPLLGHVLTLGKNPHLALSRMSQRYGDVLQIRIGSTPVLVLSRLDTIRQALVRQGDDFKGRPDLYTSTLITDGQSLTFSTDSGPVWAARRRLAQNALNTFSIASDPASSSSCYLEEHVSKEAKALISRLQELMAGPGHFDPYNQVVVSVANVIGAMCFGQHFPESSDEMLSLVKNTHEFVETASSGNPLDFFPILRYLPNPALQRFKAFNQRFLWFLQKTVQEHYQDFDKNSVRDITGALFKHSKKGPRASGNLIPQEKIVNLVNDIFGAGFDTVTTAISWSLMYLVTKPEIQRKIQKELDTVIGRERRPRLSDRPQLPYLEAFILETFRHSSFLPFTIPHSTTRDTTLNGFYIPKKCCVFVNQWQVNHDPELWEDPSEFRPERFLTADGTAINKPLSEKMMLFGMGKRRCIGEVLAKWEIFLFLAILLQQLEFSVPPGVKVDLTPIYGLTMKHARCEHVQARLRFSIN

[7] = biological target: CYP2D6 (Homo sapiens, UniProt P10635); experiment: Inhibition of CYP2D6 (unknown origin) assessed as reduction in bufuralol hydroxylation to […] at 10 uM; assay type: ADME; details: probe bufuralol
[8] = biological target: CYP3A4 (Homo sapiens, UniProt P08684); experiment: Inhibition of CYP3A4 (unknown origin) assessed as reduction in midazolam hydroxylation to 1'-Hydroxymidazolam at 10 uM; assay type: ADME; details: probe midazolam
[9] = biological target: CYP2C9 (Homo sapiens, UniProt P11712); experiment: Inhibition of CYP2C9 (unknown origin) assessed as reduction in tolbutamide hydroxylation to hydrocytolbutamide at 10 uM; assay type: ADME
[10] = biological target: LIM domain kinase 1 (Rattus norvegicus, UniProt P53669); experiment: Inhibition of Limk1 in rat A7r5 cells assessed as reduction in cofilin phosphorylation by Western blot method; assay type: cell-based
[11] = system: PC-3; experiment: cells; details: Homo sapiens, PC-3, 48 h, read-out: INH
Description: Inhibition of cell invasion of human PC3 cells at 1 uM after 48 hrs by hematoxylin staining based transwell chamber assay

[12] = system: PC-3; experiment: cells; details: Homo sapiens, PC-3, 24 h, read-out: INH
Description: Inhibition of cell migration of human PC3 cells at 0.1 uM after 24 hrs wound healing assay

[13] = system: PC-3; experiment: cells; details: Homo sapiens, PC-3, 24 h, read-out: INH; remark: listed apart in the source
Description: Inhibition of cell migration of human PC3 cells at 10 uM after 24 hrs wound healing assay

[14] = system: PC-3; experiment: cells; details: Homo sapiens, PC-3, 24 h, read-out: INH; remark: listed apart in the source
Description: Inhibition of cell migration of human PC3 cells at 1 uM after 24 hrs wound healing assay

[15] = biological target: Rho-associated protein kinase 2 (Homo sapiens, UniProt O75116)
[16] = biological target: T1, LIM domain kinase 1; experiment: Inhibition of Limk1 (unknown origin)

CYP2C9, sequence (P11712 whole entry, the tested form may be a part): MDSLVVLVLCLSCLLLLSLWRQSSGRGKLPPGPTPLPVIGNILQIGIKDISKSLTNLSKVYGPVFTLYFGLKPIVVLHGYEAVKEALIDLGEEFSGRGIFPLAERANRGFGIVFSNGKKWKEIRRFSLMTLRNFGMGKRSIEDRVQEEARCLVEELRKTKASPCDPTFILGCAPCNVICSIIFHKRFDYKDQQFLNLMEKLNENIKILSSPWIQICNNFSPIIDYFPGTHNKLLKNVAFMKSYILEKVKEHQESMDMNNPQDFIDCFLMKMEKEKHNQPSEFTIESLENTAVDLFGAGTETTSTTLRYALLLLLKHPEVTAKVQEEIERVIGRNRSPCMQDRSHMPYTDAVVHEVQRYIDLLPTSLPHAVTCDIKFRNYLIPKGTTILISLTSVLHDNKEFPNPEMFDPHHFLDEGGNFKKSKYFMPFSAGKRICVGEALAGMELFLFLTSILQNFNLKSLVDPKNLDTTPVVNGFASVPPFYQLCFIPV
T1 sequence (P53667 whole entry, the tested form may be a part): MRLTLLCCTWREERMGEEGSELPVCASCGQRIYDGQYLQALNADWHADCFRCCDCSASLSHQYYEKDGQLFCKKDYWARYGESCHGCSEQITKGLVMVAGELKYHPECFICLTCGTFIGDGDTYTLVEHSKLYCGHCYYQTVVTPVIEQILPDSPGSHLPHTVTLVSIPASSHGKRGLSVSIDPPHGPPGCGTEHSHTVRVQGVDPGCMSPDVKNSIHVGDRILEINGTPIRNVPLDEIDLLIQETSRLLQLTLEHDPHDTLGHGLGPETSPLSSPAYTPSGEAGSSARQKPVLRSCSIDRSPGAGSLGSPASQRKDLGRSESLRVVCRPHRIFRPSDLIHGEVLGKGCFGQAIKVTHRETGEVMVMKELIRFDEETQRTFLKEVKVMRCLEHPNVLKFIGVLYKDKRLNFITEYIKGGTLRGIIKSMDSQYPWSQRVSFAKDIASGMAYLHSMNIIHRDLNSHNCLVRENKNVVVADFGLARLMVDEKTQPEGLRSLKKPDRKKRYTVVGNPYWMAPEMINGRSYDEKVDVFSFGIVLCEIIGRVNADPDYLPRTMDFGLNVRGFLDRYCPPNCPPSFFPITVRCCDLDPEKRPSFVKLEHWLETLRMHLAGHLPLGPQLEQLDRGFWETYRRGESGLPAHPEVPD
LIM domain kinase 1 (Rattus norvegicus, UniProt P53669), sequence (P53669 whole entry, the tested form may be a part): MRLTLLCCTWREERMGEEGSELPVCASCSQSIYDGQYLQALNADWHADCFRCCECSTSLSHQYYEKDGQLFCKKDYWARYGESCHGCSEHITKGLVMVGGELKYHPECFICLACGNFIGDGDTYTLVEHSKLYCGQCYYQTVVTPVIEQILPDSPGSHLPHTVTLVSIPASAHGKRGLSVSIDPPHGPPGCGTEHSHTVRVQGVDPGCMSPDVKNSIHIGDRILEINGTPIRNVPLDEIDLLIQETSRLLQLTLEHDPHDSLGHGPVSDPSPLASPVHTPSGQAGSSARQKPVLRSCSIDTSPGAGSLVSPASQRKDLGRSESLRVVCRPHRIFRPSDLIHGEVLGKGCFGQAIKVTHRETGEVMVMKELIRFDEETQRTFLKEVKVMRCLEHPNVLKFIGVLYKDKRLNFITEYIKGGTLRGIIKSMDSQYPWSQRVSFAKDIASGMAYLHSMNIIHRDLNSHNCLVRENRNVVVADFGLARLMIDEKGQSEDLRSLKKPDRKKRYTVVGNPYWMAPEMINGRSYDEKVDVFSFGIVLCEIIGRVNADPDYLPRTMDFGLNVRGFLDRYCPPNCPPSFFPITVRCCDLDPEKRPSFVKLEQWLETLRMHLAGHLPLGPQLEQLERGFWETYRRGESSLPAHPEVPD
CYP3A4, sequence (P08684 whole entry): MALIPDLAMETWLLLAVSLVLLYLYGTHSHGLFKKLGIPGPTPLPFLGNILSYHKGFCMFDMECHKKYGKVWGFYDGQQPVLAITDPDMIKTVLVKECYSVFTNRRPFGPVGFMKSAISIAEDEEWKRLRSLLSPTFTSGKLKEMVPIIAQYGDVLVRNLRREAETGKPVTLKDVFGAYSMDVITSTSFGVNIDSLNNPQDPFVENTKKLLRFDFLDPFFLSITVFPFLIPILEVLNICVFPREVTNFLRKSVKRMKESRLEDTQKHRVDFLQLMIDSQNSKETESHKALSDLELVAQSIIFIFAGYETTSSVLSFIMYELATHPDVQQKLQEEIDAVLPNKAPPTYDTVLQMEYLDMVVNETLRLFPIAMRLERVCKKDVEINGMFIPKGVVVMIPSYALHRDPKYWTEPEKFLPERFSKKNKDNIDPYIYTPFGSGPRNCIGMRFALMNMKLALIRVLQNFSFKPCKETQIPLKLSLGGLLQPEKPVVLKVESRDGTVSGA
CYP2D6, sequence (P10635 whole entry): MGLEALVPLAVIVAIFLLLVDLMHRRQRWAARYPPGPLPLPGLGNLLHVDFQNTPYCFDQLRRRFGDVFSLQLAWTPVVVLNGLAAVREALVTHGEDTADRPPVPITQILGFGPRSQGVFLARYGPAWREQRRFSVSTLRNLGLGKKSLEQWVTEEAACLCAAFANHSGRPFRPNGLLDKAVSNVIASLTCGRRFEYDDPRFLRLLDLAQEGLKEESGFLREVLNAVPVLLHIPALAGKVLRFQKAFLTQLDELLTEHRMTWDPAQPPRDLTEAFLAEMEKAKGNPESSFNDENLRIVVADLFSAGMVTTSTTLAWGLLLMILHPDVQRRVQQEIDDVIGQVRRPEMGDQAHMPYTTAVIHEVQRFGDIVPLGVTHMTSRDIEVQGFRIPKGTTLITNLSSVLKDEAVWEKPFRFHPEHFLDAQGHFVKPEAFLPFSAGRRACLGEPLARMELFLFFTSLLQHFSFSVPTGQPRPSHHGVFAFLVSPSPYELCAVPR
Rho-associated protein kinase 2, sequence (O75116 whole entry, the tested form may be a part): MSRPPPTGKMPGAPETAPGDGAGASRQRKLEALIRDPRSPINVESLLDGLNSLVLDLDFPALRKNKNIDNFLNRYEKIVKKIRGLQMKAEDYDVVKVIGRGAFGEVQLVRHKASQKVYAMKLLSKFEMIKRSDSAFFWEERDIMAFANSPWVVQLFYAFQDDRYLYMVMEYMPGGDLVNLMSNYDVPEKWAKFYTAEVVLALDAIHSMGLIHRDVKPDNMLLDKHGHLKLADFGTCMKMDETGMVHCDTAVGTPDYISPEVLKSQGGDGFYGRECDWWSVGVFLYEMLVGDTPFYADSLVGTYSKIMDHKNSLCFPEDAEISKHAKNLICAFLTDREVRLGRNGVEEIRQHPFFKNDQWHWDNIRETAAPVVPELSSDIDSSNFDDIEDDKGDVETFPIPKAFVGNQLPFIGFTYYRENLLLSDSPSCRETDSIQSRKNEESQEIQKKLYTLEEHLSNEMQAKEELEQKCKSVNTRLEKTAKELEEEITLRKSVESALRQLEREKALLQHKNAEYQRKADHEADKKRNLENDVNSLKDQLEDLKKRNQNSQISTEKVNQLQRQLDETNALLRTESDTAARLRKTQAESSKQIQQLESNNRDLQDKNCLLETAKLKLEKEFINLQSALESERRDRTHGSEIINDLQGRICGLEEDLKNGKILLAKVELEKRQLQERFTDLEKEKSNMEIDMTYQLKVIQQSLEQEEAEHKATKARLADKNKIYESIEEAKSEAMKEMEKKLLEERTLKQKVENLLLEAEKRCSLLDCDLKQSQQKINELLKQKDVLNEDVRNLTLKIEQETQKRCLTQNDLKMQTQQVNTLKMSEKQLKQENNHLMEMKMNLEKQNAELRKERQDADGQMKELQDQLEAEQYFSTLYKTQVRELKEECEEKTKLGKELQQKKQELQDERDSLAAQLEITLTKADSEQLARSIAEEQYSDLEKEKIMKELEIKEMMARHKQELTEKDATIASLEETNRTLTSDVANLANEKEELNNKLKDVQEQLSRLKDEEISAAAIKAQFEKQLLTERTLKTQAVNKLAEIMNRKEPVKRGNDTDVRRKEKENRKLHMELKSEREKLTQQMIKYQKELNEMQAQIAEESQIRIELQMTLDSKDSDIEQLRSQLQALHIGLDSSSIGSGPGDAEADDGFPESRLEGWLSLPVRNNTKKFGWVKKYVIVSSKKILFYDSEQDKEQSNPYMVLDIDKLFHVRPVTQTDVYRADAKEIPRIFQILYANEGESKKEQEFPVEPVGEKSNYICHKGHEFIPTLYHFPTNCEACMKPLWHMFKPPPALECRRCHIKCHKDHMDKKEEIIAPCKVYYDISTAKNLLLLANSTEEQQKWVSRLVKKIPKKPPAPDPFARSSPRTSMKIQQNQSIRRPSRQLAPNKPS

Compound | t1/2 [1] [min] | t1/2 [2] [min] | bioavailability [4] [%] | Vd [5] [L/kg] | inhibition at 10 µM [6] [%] | inhibition at 10 µM [7] [%] | also measured
Cc1[nH]c2ncnc(-c3ccc(NC(=O)Nc4cccc(C(=O)NC(C)C)c4)cc3)c2c1C | 47 | > 120 | – | – | – | – | –
CC(C)NC(=O)c1cccc(NC(=O)Nc2ccc(-c3ccnc4[nH]ccc34)cc2)c1 | – | – | – | – | – | – | pIC50 [3]: < 5.00
Cc1c[nH]c2ncnc(-c3ccc(NC(=O)Nc4cccc(C(=O)NC(C)C)c4)cc3)c12 | – | – | 0 | 0.3 | – | – | –
Cc1c[nH]c2ncnc(-c3ccc(NC(=O)N(CCO)c4ccc(F)cc4)cc3)c12 | 44 | 52 | – | – | -4 | 3 | –
COc1cccc(N(CCO)C(=O)Nc2ccc(-c3ncnc4[nH]cc(C)c34)cc2)c1 | 38 | 21 | – | – | 3 | 3 | –
COc1ccc(NC(=O)N(CCN2CCCC2)c2ccc(-c3ncnc4[nH]cc(C)c34)cc2)cc1 | – | – | – | – | – | – | pIC50 [3]: 5.03
Cc1[nH]c2ncnc(-c3ccc(NC(=O)N(CCN)c4ccc(Cl)cc4)c(F)c3)c2c1C | > 120 | > 120 | – | – | – | – | inhibition at 10 µM [8]: -11%
Cc1[nH]c2ncnc(-c3ccc(NC(=O)N(CCO)c4ccc(Cl)cc4)c(F)c3)c2c1C | 99 | 44 | 29 | 0.5 | 40 | 8 | –
COc1ccc(N(CCO)C(=O)Nc2ccc(-c3ncnc4[nH]cc(C)c34)cc2)cc1 | 56 | 40 | 24 | 0.3 | -8 | -4 | inhibition at 10 µM [8]: 2%; inhibition at 10 µM [9]: 8%
Cc1c[nH]c2ncnc(-c3ccc(NC(=O)N(CCO)c4cccc(Cl)c4)cc3)c12 | 22 | 20 | – | – | -19 | 2 | pIC50 [10]: 6.43
Cc1c[nH]c2ncnc(-c3ccc(NC(=O)N(CCO)c4ccccc4Cl)cc3)c12 | – | 38 | 21 | 0.7 | -4 | 1 | inhibition at 1 µM [11]: 83%; pIC50 [10]: 6.38; inhibition at 0.1 µM [12]: 13%; inhibition at 10 µM [13]: 81%; inhibition at 1 µM [14]: 76.1%
CC(C)NC(=O)c1cccc(NC(=O)Nc2ccc(-c3ncnc4[nH]cnc34)cc2)c1 | – | – | – | – | – | – | pIC50 [3]: 5.82; pIC50 [15]: 5.25
Cc1c[nH]c2ncnc(-c3ccc(NC(=O)Nc4ccccc4)cc3)c12 | – | – | 16 | 0.5 | – | – | –
COc1ccc(N(CCN)C(=O)Nc2ccc(-c3ncnc4[nH]cc(C)c34)cc2)cc1 | – | – | 0 | 6 | – | – | –
Cc1c[nH]c2ncnc(-c3ccc(NC(=O)N(CCO)c4ccc(Cl)cc4)cc3)c12 | > 120 | 73 | 20 | 0.5 | -12 | 4 | pIC50 [10]: 6.93
Cc1ccc(N(CCO)C(=O)Nc2ccc(-c3ncnc4[nH]cc(C)c34)cc2)cc1 | 56 | 39 | 24 | 0.3 | -5 | -4 | inhibition at 10 µM [8]: 5%
Cc1c[nH]c2ncnc(-c3ccc(NC(=O)Nc4cccc(C(=O)NC(C)C)c4)c(F)c3)c12 | 27 | 55 | 0 | 0.7 | – | – | pIC50 [10]: 5.40
Cc1c[nH]c2ncnc(-c3ccc(NC(=O)N(CCN)c4ccc(Cl)cc4)cc3)c12 | – | – | 0 | 4 | – | – | –
COc1ccccc1N(CCO)C(=O)Nc1ccc(-c2ncnc3[nH]cc(C)c23)cc1 | – | – | – | – | – | – | pIC50 [15]: < 5.00
COc1ccc(NC(=O)N(CCN2CCCCC2)c2ccc(-c3ncnc4[nH]cc(C)c34)cc2)cc1 | – | – | – | – | – | – | pIC50 [3]: < 5.00
COCCN(C(=O)Nc1ccc(-c2ncnc3[nH]c(C)c(C)c23)cc1F)c1ccc(Cl)cc1 | – | 13 | – | 1.2 | – | – | inhibition at 10 µM [9]: 50%; pIC50 [10]: 6.60
Cc1c[nH]c2ncnc(-c3ccc(NC(=O)N(CCN(C)C)c4ccc(Cl)cc4)cc3)c12 | – | – | 0 | 17.1 | – | – | –
Cc1c[nH]c2ncnc(-c3ccc(NC(=O)N(CCO)c4ccccc4)cc3)c12 | 87 | 30 | 36 | 0.4 | -16 | 5 | inhibition at 1 µM [11]: 76%; inhibition at 0.1 µM [12]: 16.5%; inhibition at 10 µM [13]: 77.5%; inhibition at 1 µM [14]: 74%
Cc1[nH]c2ncnc(-c3ccc(NC(=O)N(CCN(C)C)c4ccc(Cl)cc4)c(F)c3)c2c1C | 19 | 23 | – | 1.5 | – | 20 | inhibition at 10 µM [8]: -9%; inhibition at 10 µM [9]: -23%; pIC50 [10]: 6.49
COc1c(C=O)c(O)cc2c1C(=O)c1ccccc1C2=O [DAMNACANTHAL] | – | – | – | – | – | – | pIC50 [16]: 6.10
